According to patent EP4663632A1, “COMPOUNDS USEFUL FOR THE MODULATION OF THE ACTIVITY OF STING” (Sulis Therapeutics ApS, priority 2024, dated 2025):

Columns and labels:
Assay type in all cases: cell-based
STING [1] = biological target: T1, STING (Homo sapiens, UniProt Q86WV6); assay: Western Blot analysis for STING degradation in H1650 cells; conditions: 0.22 µM, 0.67 µM, 2 µM and 6 µM
Protocol: To assess STING degradation in H596 cells (ATCC, HTB-178) cells were seeded at a density of 100.000 cells/well in 24-well Nunclon Delta surface treated culture plate in RPMI-1640 growth medium (supplemented with 10% FBS, 1% Pen-strep). Cells were incubated over-night at 37°C 5% CO2 to allow adhesion. Next day growth medium was renewed and a 5x concentration of test compounds (2.5% DMSO) diluted in growth medium were added to the appropriate well. Final DMSO concentration was 0.5%. Cell culture plates were returned to the incubator for additional 24h. Final test compound concentrations were 0.22 µM, 0.67 µM, 2 µM and 6 µM.
(§1) For cell lysis, western blotting and data analysis, the methods described above for HFF-1 cells were applied.
Similar protocols were carried out to assess STING degradation in H1650 cells (Figure 1, top panel) and HaCat cells (Figure 1, bottom panel) using Example compounds 14, 16 and 24, except that the seeding density was 150,000 cells/well and 250,000 cells/well for H1650 cells and HaCat cells, respectively.

STING [2] = biological target: T1, STING; assay: Western Blot analysis of STING phosphorylation in human fibroblast cells (STING agonism); set-up: host or cells: HFF-1 human foreskin fibroblasts; conditions: 7.2µM-3.6nM; 24h
Protocol: Human fibroblast were treated with a titration of E22, E9, E14 and E16 (7.2µM-3.6nM) for 24h prior to cell lysis and subsequently total STING, pSTING and Vinculin were assessed by western blot using rabbit anti-STING (1:1000), anti-pSTING (1:1000), anti-Vinculin (1:1000) and 2nd anti-rabbit-HRP (1:10.000) or anti-mouse-HRP (1:7500). Proteins were visualized using ImageQuant800. Control cells included untreated cells and cells treated with 300nM diABZI C3.

STING [3] = biological target: T1, STING; assay: Inhibition of STING-agonist-induced IFN-β release in HFF-1 cells (HFF-1 STING inhibition assay); set-up: host or cells: HFF-1 human foreskin fibroblasts; conditions: 24h with compound, then 0.3 µM diABZI c3, 6h; ELISA
Protocol: To evaluate cellular effects of test compounds, we assessed inhibition of STING-agonist-induced IFN-β release in human foreskin fibroblasts HFF-1 cells (ATCC, SCRC-1041). Cells were seeded at a density of 10.000 cells/well in 96-well Nunclon Delta surface treated culture plate in DMEM growth medium (supplemented with 10% FBS, 1% Pen-strep). Cells were incubated over-night at 37°C 5% CO2 to allow adhesion. Next morning growth medium was renewed and a 7x concentration 3-step dilution series of test compounds (2,1% DMSO) diluted in growth medium were added to the appropriate well. Final DMSO concentration was 0.3%. […] Cells culture plates were further incubated, and supernatants were harvested after 6h and immediately stored at -20°C until determination of IFN-β release. Cell supernatants were analysed for IFN-β release using DuoSet human IFN-β ELISA (R&D systems, DY-814) following manufactures protocol except using 96-well, half-volume plates from Corning and subsequently use half volume for all steps throughout the protocol. In brief, plates were coated o/n with a 130x dilution of capturing antibody in PBS. Wells were washed 3x with PBS-T20 followed by blocking with 1% BSA diluted in TBS-T20 for 1h. […] Wells were washed 3x with PBS-T20 and detection antibody diluted 1:60 in 1% BSA in PBS was added to each well and incubated for 2h at rt. […]

STING [4] = biological target: T2, STING (Mus musculus, UniProt Q3TBT3); assay: Western Blot analysis for STING degradation in mouse RAW264.7 cells; set-up: endogenous in cells; host or cells: RAW264.7 mouse cells; conditions: 19.5nM to 10 µM, 24 hours
T2 sequence (Q3TBT3 1-378): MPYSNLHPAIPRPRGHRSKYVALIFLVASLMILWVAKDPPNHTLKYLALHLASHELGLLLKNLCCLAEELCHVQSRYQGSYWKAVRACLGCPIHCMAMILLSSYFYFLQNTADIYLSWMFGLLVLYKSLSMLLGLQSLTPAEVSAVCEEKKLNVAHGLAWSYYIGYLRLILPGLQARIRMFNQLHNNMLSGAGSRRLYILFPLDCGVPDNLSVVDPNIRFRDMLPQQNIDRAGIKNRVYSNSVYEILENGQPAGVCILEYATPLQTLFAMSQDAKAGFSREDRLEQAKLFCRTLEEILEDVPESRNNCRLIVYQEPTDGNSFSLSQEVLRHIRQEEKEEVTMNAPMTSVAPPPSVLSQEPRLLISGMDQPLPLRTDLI
Protocol: To assess STING degradation in RAW264.7 cells, cells were seeded at a density of 60.000 cells/well in 24-well Nunclon Delta surface treated culture plate in RPMI-1640 growth medium (supplemented with 10% FBS, 1% Pen-strep). Cells were incubated over-night at 37°C 5% CO2 to allow adhesion. Next day growth medium was renewed and a 5x concentration of test compounds (2.5% DMSO) diluted in growth medium were added to the appropriate well. Final DMSO concentration was 0.5%. Cells were treated with a titration of test compound from 19.5nM to 10 µM 24 hours prior to cells lysis and subsequently analyzed by WB using anti-STING (1:1000) and anti-VCL (1:1000) antibodies. Controls included UT (DMSO) and 1.8µM diABZI treated cells.
as §1

STING [5] = biological target: T2, STING; assay: IFN-β secretion from mouse RAW264.7 cells treated with diABZI; set-up: endogenous in cells; host or cells: RAW264.7 mouse cells; conditions: 1.8 µM diABZI c3 and 0.05 µM Example compound
Protocol: As expected, RAW264.7 cells treated with 1.8 µM diABZI c3 increased IFN-β secretion, resulting in a media concentration of around 1000 pg/mL. In contrast, cells treated with 1.8 µM diABZI c3 and 0.05 µM Example compounds 14, 16 or 24 reduced this expression to approximately 500 pg/mL.

T1 sequence (Q86WV6 whole entry): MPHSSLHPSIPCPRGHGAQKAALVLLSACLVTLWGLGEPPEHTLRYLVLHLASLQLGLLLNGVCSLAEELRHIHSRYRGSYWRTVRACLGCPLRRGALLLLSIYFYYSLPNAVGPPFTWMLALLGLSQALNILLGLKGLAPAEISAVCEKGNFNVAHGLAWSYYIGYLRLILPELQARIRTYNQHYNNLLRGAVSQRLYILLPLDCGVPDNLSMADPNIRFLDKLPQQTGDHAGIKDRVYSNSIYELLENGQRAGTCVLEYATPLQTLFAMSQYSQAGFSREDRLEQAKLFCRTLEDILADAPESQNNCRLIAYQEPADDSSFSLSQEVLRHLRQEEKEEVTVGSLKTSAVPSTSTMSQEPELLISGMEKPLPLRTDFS

Row | STING phosphorylation (pSTING) (STING [2]) | EC50 (STING [3]) | STING degradation (Western Blot, Figure 2) (STING [4]) | IFN-β media concentration (STING [5]) | SMILES | STING degradation (Western Blot, Figure 1) (STING [1]) | total STING protein levels (STING [2])
1 | no STING phosphorylation was observed | 1000 to 5000 nM | dose-dependent STING degradation | approximately 500 pg/mL | CCn1nc(C)cc1C(=O)N=c1n(C)c2cc(C(N)=O)ccc2n1CCC(CCn1c(=NC(=O)c2cc(C)nn2CC)n(C)c2cc(C(N)=O)ccc21)OCC(=O)NCCOCCOCCOCCOCCC(=O)NCCOCCOCCOCCOCC(=O)N[C@H](C(=O)N1C[C@H](O)C[C@H]1C(=O)NCc1ccc(-c2scnc2C)cc1)C(C)(C)C (stereo partly drawn) [Example 14] | inducing visible degradation in H1650 and H596 at the higher concentrations tested | total STING protein levels were observed to decrease
2 | no STING phosphorylation was observed | < 200 nM | dose-dependent STING degradation | approximately 500 pg/mL | CCn1nc(C)cc1C(=O)N=c1n(C)c2cc(C(N)=O)ccc2n1CCC(CCn1c(=NC(=O)c2cc(C)nn2CC)n(C)c2cc(C(N)=O)ccc21)OCC(=O)NCCOCCOCCOCCOCCC(=O)NCCOCCOCCOCCOCCNc1cccc2c1C(=O)N(C1CCC(=O)NC1=O)C2=O (stereo not drawn) [Example 16] | induced STING degradation in all cell lines tested at all concentrations tested | total STING protein levels were observed to decrease
